Measurements as given in article PMC4911353, “Pharmacologic Inhibition of Host Phosphodiesterase-4 Improves Isoniazid-Mediated Clearance of Mycobacterium tuberculosis” (Frontiers in Immunology, 2016).

How the values were obtained:
[1] = test system: lung granulomas; test: Histology and morphometric measurement of lung granulomas in Mtb-infected mice; assay type: in vivo
Protocol: Formalin-fixed lung tissues of Mtb-infected mice were paraffin-embedded, cut into […] sections, and stained with hematoxylin and eosin (H&E) or acid fast staining by Ziehl–Neelsen (ZN) method to visualize host cells and Mtb, respectively (IDEXX-RADIL Laboratories Inc., MO, USA) as described in Ref. ([11]). Stained sections were photographed in a Nikon Microphot-FX photomicrographic system and analyzed with NIS-Elements F3.0 software (Nikon Instruments Inc., NY, USA). Lung granuloma size was morphometrically measured using PathScan Enabler IV scanner (Meyer Instruments, Houston, TX, USA) and SigmaScan Pro software (Systat Software, Inc., CA, USA). Histopathologic analysis and morphometry were performed by an experienced pathologist blinded to the sample identity.

[2] = test system: Mycobacterium tuberculosis CDC1551; assay type: in vivo; conditions: B6D2F1 mice, 50 mg/kg daily
[3] = test system: Mtb; conditions: mouse pulmonary TB model; cited from earlier work

| Structure (SMILES) | Lesion area (granuloma size) versus untreated mice ([1]; 28 days postinfection) | Granuloma size versus untreated group ([1]; 112 days postinfection) | Change in lung CFUs from 84 to 112 days postinfection [2] | Impact on antibiotic-mediated bacillary clearance [3] |
| --- | --- | --- | --- | --- |
| NNC(=O)c1ccncc1 [INH, isoniazid] | significant differences | significant reduction | no significant decline | – |
| COc1ccc([C@]2(C#N)CC[C@@H](C(=O)O)CC2)cc1OC1CCCC1 [cilomilast] | – | – | – | no impact |
| COc1ccc(C2CNC(=O)C2)cc1OC1CCCC1 (centres unmarked) [rolipram] | – | – | – | no impact |
